# Measured values taken from patent US6680311B1, “Cryptophycin compounds” (Eli Lilly and Company, priority 1996, dated 2004).
# Structures can show the parent of a compound that is named as a salt.
# Experiments:
# Format in all cases: physicochemical
# [1] = Aqueous solubility and stability at pH 4-8
# Procedure: A comparison of stability characteristics between 1 and 12 in aqueous Ph ranging from 4-8 was determined at room temperature for 6 hours.
# [2] = Solubility in excipient / parenteral vehicles; settings: Propylene Glycol 15 % v/v, Polyethylele Glycol 3000 20 % v/v, volume adjusted 0.05 M acetate buffer
# [3] = Stability in parenteral formulation; settings: formulation 6 of Table 4, up to 3 weeks, preliminary
compound,measurement,setting,value
"COc1ccc(C[C@H]2NC(=O)/C=C/C[C@@H]([C@H](C)[C@@H](OC(=O)CN)[C@@H](Cl)c3ccccc3)OC(=O)[C@H](CC(C)C)OC(=O)C(C)(C)CNC2=O)cc1Cl [Compound 12, Cryptophycin 55 Glycinate Hydrochloride Salt]",course of aqueous solubility over the pH range studied,"[1]; aqueous pH 4-8, room temperature, 6 hours",remained substantially steady
same,stability in an aqueous environment,"[1]; physiological pH range, over longer periods of time",better stability
same,"Comparative solubility, vehicle 2",[2],>2.0 mg/mL
same,stability in formulation 6,[3],acceptable stability
